Measured values: US20080171729A1, “Use Of A Steroid For Enhancement Of Skin Permeability” (Novartis AG, priority 2004, published 2008)

Experiment: Skin penetration/permeation assay in static Franz-type diffusion cells, untreated or corticosteroid pre-treated split-thickness skin
Assay type: in vitro ADME, domestic pigs
Description: Three young, male castrated domestic pigs with body weights of approximately 15 kg are used as skin donors. The animals are obtained from a local breeder and maintained under standardized conditions (22±1°, 55±5% relative humidity, 10 changes of fresh air/hour, 12 hours day/12 hours night cycle). After a settling-in period of 7 days the pigs are treated topically on test areas on the dorsolateral back • with CS solutions in EtOH/propylene glycol (3+7, v/v) as a solvent, and • contra-laterally with solvent alone, twice daily for 5 days. HC (Sigma) at 1.0%, MOM (Sequoia Research Products) at 0.1% and CLO (Sigma) at 0.05% are used as CS. The CS-samples and solvent alone are applied in volumes of 50 μl to skin areas of 3.5×6.5 cm each. All three CS and solvent alone are applied to all animals. 16 hours after the last application the animals are killed and the treated skin samples are dissected. Full-thickness skin samples are dissected from vehicle- and CS-treated sites and cut into 0.4 mm split-thickness skin samples with a dermatome (Aesculap®). The samples include the epidermal layers and the superficial part of the dermis but no deep dermal layers and no subcutaneous fat. […] Schmook F B, Stütz A, Reinhardt J, Skin Pharmacol 1993; 6: 116-124. PBS/EtOH 3:1 is used as receptor phase. All experiments are performed at 32° in triplicates for 48 hours. Test compounds are applied to the epidermal side of the skin samples in their marketed formulations, i.e. Elidel® 1% cream (pimecrolimus) and Protopic® 0.1% ointment (tacrolimus), each in amounts of 300 mg. Samples of 100 μl are taken from the receptor phase at 5 time points during the 48-hours experiment and replaced by fresh receptor fluid. After addition of an internal standard (ASD732, see e.g. EP569337) the samples are directly analyzed by RPLC using MS-based detection. […] Specimens from the stripped skin are taken with a biopsy punch, weighed and then homogenized in 0.1 M sodium phosphate buffer, pH 7. Following addition of an internal standard (ASD732) and buffer of pH 10 to the homogenates, extraction is performed with tert-butyl methylether. Solvent from each extract obtained is evaporated, each residue obtained is redissolved and subjected to analysis by RPLC using MS-based detection. Receptor fluid samples are analyzed by RP-HPLC with MS detection in ESI positive mode (LC-MS/MS analysis). The MS/MS mode is used to increase selectivity. LC-MS/MS analysis is carried out with an Agilent 1100 Series Capillary LC System coupled to a Finnigan LCQ mass spectrometer. A Phenomenex Luna C18(2) column (3 μm, 100×2 mm) equipped with a precolumn is used and eluted isocratically with a flow rate of 100 μl/minute at 60°. The effluent is delivered unsplit to the ESI ion-source. Under the chromatographic conditions used, all compounds tested yield a strong sodium adduct. For MS/MS parent ions are selected. The quantification of the parent ions is based on the area ratio of the fragment ions to the fragment ion of the internal standard.

[1] = pre-treated skin compared with untreated skin

| permeation rate of tacrolimus in comparison with pimecrolimus, times higher (CLO-pretreated skin) | permeation rate of tacrolimus in comparison with pimecrolimus, times higher (HC-pre-treated skin) | permeation rate of tacrolimus in comparison with pimecrolimus, times higher (MOM-pre-treated skin) | permeation rate increased by factors (corticosteroid pretreated samples (range over HC, MOM, CLO) compared with untreated skin) | skin penetration (skin concentration) enhanced, in words [1] | permeation rate of tacrolimus in comparison with pimecrolimus, times higher (untreated skin) | permeation rate increased by factor (CLO pre-treatment compared with untreated skin) | permeation rate increased by factor (HC-pre-treatment compared with untreated skin) | permeation rate increased by factor (MOM pre-treatment compared with untreated skin) | skin penetration (skin concentration) enhanced [1] | SMILES |
| --- | --- | --- | --- | --- | --- | --- | --- | --- | --- | --- |
| 3.5 | 5.9 | 7.1 | 1.3-1.9 | not significantly | 11.2 | – | – | – | – | C=CC[C@@H]1/C=C(\C)C[C@H](C)C[C@H](OC)[C@H]2O[C@@](O)(C(=O)C(=O)N3CCCC[C@H]3C(=O)O[C@H](/C(C)=C/[C@@H]3CC[C@H](O)[C@H](OC)C3)[C@H](C)[C@@H](O)CC1=O)[C@H](C)C[C@@H]2OC [tacrolimus] |
| – | – | – | – | – | – | 4.1 | 3.8 | 2.9 | at least 10% | CC[C@@H]1/C=C(\C)C[C@H](C)C[C@H](OC)[C@H]2O[C@@](O)(C(=O)C(=O)N3CCCC[C@H]3C(=O)O[C@H](/C(C)=C/[C@@H]3CC[C@H](Cl)[C@H](OC)C3)[C@H](C)[C@@H](O)CC1=O)[C@H](C)C[C@@H]2OC [pimecrolimus] |
